According to patent US7282504B2, “Kinase inhibitors” (Amgen Inc., priority 2000, dated 2007):

Assays:
Assay type in all cases: biochemical
PDGFRB = molecular target: T1, PDGFRB (Homo sapiens, UniProt P09619); experiment: Kinase inhibition, 33P transfer to plate-bound substrate: PDGFRB
T1 construct: Kinases are expressed as either kinase domains or full-length constructs; made in house
Description: (§1) The inhibitor compounds described herein are screened in the following manner. Kinases suitable for use in the following protocol to determine kinase activity of the compounds described herein include, but are not limited to: Lck, Lyn, Src, Fyn, Syk, Zap-70, Itk, Tec, Btk, EGFR, ErbB2, Kdr, Flt-1, Flt-3, Tek, c-Met, InsR, and AKT.
(§2) Kinases are expressed as either kinase domains or full-length constructs fused to glutathione S-transferase (GST) or polyHistidine tagged fusion proteins in either E. coli or Baculovirus-High Five expression systems. They are purified to near homogeneity by affinity chromatography essentially as previously described (Lehr et al., 1996; Gish et al., 1995). In some instances, kinases are co-expressed or mixed with purified or partially purified regulatory polypeptides prior to measurement of activity.
(§3) Kinase activity and inhibition are measured essentially by established protocols (Braunwalder et al., 1996). Briefly, The transfer of ^33PO4 from ATP to the synthetic substrates poly(Glu, Tyr) 4:1 or poly(Arg, Ser) 3:1 attached to the bioactive surface of microtiter plates serves as the basis to evaluate enzyme activity. After an incubation period, the amount of phosphate transferred is measured by first washing the plate with 0.5% phosphoric acid, adding liquid scintillant, and then counting in a liquid scintillation detector. The IC50 is determined by the concentration of compound that causes a 50% reduction in the amount of ^33P incorporated onto the substrate bound to the plate.

EGFR-1 = molecular target: T2, EGFR-1 (Homo sapiens, UniProt P00533); experiment: Kinase inhibition, 33P transfer to plate-bound substrate: EGFR-1
T2 construct: Kinases are expressed as either kinase domains or full-length constructs; made in house
Description: as §1, §2, §3

ErbB2-1 = molecular target: T3, ErbB2-1 (Homo sapiens, UniProt P04626); experiment: Kinase inhibition, 33P transfer to plate-bound substrate: ErbB2-1
T3 construct: Kinases are expressed as either kinase domains or full-length constructs; made in house
T3 sequence (P04626 23-1255): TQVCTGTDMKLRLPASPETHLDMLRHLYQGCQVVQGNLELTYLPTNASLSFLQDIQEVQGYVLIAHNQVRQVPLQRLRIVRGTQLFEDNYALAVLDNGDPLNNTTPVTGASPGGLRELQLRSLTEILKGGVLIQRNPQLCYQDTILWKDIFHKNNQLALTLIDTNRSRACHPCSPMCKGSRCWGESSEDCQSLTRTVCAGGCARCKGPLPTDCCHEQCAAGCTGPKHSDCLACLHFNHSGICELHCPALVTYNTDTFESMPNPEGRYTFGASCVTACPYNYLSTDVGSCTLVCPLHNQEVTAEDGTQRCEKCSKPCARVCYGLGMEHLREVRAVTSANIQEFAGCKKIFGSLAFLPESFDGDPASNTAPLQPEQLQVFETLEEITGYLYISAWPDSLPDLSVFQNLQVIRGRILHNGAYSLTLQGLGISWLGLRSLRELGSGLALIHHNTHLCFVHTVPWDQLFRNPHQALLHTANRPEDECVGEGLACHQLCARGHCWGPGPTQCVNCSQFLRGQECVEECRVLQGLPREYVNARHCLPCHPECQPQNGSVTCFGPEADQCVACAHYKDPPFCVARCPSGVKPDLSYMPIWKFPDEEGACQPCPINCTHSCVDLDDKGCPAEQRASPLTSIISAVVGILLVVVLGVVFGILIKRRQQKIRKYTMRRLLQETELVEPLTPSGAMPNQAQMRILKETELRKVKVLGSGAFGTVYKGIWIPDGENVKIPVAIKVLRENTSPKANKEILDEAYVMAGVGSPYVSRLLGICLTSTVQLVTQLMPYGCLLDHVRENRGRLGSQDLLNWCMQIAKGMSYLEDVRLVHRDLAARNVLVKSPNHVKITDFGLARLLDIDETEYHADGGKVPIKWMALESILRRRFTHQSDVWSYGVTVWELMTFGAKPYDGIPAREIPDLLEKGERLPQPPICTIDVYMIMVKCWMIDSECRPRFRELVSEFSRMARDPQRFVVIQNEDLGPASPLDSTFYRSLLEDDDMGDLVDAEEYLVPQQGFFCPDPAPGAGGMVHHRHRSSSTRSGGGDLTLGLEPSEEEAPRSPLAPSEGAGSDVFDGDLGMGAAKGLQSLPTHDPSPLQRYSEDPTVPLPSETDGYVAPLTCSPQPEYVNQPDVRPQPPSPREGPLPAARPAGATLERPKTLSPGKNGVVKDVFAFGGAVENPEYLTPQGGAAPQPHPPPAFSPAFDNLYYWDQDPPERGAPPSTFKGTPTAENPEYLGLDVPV
Description: as §1, §2, §3

KDR-1 = molecular target: T4, KDR-1 (Homo sapiens, UniProt P35968); experiment: Kinase inhibition, 33P transfer to plate-bound substrate: KDR-1
T4 construct: Kinases are expressed as either kinase domains or full-length constructs; made in house
Description: as §1, §2, §3

Met-1 = molecular target: T5, Met-1 (Homo sapiens, UniProt P08581); experiment: Kinase inhibition, 33P transfer to plate-bound substrate: Met-1
T5 construct: Kinases are expressed as either kinase domains or full-length constructs; made in house
T5 sequence (P08581 25-1390): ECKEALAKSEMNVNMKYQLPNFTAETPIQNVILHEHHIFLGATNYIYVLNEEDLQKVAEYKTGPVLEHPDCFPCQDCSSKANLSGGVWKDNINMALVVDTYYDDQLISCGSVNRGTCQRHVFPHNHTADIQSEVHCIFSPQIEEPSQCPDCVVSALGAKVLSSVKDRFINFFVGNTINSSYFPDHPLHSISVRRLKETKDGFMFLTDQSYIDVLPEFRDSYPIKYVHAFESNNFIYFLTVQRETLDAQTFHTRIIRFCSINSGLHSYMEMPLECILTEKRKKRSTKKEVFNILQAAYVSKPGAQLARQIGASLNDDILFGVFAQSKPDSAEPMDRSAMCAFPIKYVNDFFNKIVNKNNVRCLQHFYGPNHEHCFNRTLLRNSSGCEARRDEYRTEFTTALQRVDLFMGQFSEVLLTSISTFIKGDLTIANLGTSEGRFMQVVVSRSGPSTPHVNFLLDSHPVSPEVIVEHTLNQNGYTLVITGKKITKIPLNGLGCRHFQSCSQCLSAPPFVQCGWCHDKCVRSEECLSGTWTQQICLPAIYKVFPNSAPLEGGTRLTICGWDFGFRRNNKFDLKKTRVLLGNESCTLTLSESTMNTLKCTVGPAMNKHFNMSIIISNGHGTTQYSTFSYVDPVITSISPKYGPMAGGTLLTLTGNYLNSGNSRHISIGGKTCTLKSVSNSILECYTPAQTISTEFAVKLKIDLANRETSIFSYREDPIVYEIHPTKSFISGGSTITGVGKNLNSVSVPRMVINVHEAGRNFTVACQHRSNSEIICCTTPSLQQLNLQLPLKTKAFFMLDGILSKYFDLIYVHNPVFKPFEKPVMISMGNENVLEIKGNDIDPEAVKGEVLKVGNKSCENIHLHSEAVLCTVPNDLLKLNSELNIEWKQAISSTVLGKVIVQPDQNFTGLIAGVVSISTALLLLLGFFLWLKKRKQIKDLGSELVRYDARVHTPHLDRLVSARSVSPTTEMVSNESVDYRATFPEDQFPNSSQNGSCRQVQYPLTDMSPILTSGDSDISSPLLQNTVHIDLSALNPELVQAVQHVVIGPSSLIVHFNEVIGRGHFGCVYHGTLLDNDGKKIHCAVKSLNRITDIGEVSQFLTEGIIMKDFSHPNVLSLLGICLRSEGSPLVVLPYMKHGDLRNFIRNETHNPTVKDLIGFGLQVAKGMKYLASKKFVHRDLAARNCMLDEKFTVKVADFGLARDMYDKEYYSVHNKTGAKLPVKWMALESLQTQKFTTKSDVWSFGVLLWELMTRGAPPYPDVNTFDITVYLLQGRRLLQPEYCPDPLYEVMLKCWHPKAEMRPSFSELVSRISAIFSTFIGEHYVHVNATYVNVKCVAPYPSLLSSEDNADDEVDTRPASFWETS
Description: as §1, §2, §3

Zap-1 = molecular target: T6, Zap-1 (Homo sapiens, UniProt P43403); experiment: Kinase inhibition, 33P transfer to plate-bound substrate: Zap-1
T6 construct: Kinases are expressed as either kinase domains or full-length constructs; made in house
T6 sequence (P43403 1-619): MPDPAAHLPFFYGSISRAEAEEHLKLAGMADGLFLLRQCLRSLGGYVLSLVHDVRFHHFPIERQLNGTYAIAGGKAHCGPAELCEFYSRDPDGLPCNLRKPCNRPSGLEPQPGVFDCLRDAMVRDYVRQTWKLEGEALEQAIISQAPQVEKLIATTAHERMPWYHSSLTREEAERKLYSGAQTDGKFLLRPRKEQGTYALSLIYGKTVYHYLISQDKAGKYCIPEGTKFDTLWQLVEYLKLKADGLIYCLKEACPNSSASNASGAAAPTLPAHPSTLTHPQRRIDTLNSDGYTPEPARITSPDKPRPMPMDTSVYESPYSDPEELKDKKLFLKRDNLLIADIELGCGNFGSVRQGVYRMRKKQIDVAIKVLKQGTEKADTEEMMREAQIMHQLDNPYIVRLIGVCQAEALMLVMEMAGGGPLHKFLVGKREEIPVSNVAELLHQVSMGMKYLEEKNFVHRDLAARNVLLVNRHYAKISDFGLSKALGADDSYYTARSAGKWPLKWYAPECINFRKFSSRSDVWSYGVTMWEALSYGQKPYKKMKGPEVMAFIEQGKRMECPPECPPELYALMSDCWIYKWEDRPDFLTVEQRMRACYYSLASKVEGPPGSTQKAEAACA
Description: as §1, §2, §3

Lck-1 = molecular target: T7, Lck-1 (Homo sapiens, UniProt P06239); experiment: Kinase inhibition, 33P transfer to plate-bound substrate: Lck-1
T7 construct: Kinases are expressed as either kinase domains or full-length constructs; made in house
T7 sequence (P06239 whole entry, the tested form may be a part): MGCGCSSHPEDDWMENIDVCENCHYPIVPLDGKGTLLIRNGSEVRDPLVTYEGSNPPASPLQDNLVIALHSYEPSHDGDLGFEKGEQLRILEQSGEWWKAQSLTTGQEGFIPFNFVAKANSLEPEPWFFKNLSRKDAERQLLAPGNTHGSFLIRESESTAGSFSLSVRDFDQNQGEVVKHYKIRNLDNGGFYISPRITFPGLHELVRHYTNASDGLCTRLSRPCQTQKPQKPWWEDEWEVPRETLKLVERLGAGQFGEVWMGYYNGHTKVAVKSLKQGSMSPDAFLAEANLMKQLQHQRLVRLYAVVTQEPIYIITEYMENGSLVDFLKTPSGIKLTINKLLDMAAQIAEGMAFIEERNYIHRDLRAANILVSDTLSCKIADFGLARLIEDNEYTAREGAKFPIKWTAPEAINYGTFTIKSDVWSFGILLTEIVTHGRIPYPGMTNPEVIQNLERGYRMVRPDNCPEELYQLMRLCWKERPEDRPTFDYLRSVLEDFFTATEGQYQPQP
Description: as §1, §2, §3

Akt3-1 = molecular target: T8, Akt3-1 (Homo sapiens, UniProt Q9Y243); experiment: Kinase inhibition, 33P transfer to plate-bound substrate: Akt3-1
T8 construct: Kinases are expressed as either kinase domains or full-length constructs; made in house
T8 sequence (Q9Y243 whole entry, the tested form may be a part): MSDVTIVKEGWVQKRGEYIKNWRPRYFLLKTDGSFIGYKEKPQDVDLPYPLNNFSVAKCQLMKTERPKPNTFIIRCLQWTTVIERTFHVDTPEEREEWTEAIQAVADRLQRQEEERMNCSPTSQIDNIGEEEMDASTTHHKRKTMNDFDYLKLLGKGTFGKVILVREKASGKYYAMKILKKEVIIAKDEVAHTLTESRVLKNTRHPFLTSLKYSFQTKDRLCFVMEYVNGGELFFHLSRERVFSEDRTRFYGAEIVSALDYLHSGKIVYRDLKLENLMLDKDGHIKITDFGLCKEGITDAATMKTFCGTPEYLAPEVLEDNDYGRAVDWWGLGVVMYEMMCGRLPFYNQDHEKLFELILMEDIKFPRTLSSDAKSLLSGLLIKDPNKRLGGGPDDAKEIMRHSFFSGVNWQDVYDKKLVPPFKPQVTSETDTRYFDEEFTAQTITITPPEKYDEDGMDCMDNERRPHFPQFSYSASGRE
Description: as §1, §2, §3

Itk-1 = molecular target: T9, Itk-1 (Homo sapiens, UniProt Q08881); experiment: Kinase inhibition, 33P transfer to plate-bound substrate: Itk-1
T9 construct: Kinases are expressed as either kinase domains or full-length constructs; made in house
T9 sequence (Q08881 1-620): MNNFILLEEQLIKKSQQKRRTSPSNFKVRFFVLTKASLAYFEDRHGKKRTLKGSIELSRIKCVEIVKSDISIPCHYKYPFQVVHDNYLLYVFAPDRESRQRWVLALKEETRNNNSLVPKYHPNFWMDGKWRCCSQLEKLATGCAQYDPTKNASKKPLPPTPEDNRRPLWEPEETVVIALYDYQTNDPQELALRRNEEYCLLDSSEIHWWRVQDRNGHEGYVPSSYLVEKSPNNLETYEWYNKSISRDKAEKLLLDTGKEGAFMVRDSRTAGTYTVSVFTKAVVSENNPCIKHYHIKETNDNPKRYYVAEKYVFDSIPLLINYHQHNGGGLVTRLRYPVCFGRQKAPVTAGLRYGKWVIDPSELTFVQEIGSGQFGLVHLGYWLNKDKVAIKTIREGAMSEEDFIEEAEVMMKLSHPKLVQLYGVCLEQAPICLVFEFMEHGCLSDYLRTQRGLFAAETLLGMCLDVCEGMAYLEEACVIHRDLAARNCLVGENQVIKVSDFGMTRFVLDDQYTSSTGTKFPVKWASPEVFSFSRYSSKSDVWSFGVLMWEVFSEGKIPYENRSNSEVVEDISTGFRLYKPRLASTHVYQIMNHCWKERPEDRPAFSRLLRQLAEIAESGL
Description: as §1, §2, §3

IGFR-1 = molecular target: T10, IGFR-1 (Homo sapiens, UniProt P08069); experiment: Kinase inhibition, 33P transfer to plate-bound substrate: IGFR-1
T10 construct: Kinases are expressed as either kinase domains or full-length constructs; made in house
Description: as §1, §2, §3

Lck-2 = molecular target: T11, Lck-2 (Homo sapiens, UniProt P06239); experiment: Kinase inhibition, 33P transfer to plate-bound substrate: Lck-2
T11 construct: Kinases are expressed as either kinase domains or full-length constructs; made in house
T11 sequence (P06239 whole entry, the tested form may be a part): as the sequence (P06239 whole entry, the tested form may be a part) above
Description: as §1, §2, §3

Fyn-1 = molecular target: T12, Fyn-1 (Homo sapiens, UniProt P06241); experiment: Kinase inhibition, 33P transfer to plate-bound substrate: Fyn-1
T12 construct: Kinases are expressed as either kinase domains or full-length constructs; made in house
Description: as §1, §2, §3

Ret-1 = molecular target: T13, Ret-1 (Homo sapiens, UniProt P07949); experiment: Kinase inhibition, 33P transfer to plate-bound substrate: Ret-1
T13 construct: Kinases are expressed as either kinase domains or full-length constructs; made in house
Description: as §1, §2, §3

Src-1 = molecular target: T14, Src-1 (Homo sapiens, UniProt P12931); experiment: Kinase inhibition, 33P transfer to plate-bound substrate: Src-1
T14 construct: Kinases are expressed as either kinase domains or full-length constructs; made in house
Description: as §1, §2, §3

FGFR1-1 = molecular target: T15, FGFR1-1 (Homo sapiens, UniProt P11362); experiment: Kinase inhibition, 33P transfer to plate-bound substrate: FGFR1-1
T15 construct: Kinases are expressed as either kinase domains or full-length constructs; made in house
Description: as §1, §2, §3

InsR-1 = molecular target: T16, InsR-1 (Homo sapiens, UniProt P06213); experiment: Kinase inhibition, 33P transfer to plate-bound substrate: InsR-1
T16 construct: Kinases are expressed as either kinase domains or full-length constructs; made in house
Description: as §1, §2, §3

Flt1-1 = molecular target: T17, Flt1-1 (Homo sapiens, UniProt P17948); experiment: Kinase inhibition, 33P transfer to plate-bound substrate: Flt1-1
T17 construct: Kinases are expressed as either kinase domains or full-length constructs; made in house
Description: as §1, §2, §3

T1 sequence (P09619 33-1106, species assumed): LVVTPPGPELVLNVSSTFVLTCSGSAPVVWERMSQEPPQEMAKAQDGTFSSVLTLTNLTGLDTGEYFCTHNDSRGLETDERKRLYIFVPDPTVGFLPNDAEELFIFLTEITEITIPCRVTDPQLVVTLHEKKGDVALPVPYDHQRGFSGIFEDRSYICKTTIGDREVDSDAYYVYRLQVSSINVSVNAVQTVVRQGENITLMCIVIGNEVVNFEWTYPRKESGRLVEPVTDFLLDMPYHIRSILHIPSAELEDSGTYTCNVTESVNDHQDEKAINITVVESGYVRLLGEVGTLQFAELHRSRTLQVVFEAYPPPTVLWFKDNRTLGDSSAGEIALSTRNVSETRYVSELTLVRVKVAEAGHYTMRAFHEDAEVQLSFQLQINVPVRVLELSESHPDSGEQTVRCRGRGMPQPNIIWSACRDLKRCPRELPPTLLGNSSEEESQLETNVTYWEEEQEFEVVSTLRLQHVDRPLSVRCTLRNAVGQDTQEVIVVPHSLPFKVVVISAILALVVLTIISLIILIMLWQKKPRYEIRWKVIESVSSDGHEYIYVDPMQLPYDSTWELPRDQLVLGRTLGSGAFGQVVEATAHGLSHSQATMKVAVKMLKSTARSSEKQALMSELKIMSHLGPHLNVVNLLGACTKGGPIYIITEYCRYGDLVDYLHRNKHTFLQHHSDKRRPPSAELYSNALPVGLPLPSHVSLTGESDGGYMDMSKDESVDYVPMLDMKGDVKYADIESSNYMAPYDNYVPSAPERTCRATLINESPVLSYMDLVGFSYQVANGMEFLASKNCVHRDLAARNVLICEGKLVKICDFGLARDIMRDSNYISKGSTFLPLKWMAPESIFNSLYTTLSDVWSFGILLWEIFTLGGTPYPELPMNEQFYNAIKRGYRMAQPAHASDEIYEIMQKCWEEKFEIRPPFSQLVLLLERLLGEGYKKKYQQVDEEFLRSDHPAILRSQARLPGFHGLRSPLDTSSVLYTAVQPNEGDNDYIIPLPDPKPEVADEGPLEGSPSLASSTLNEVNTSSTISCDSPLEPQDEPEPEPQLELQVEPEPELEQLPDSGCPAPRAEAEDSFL

SMILES	IC50 (PDGFRB) [µM]	IC50 (EGFR-1) [µM]	IC50 (ErbB2-1) [µM]	IC50 (KDR-1) [µM]	IC50 (Met-1) [µM]	IC50 (Zap-1) [µM]	IC50 (Lck-1) [µM]	IC50 (Akt3-1) [µM]	IC50 (Itk-1) [µM]	IC50 (IGFR-1) [µM]	IC50 (Lck-2) [µM]	IC50 (Fyn-1) [µM]	IC50 (Ret-1) [µM]	IC50 (Src-1) [µM]	IC50 (FGFR1-1) [µM]	IC50 (InsR-1) [µM]	IC50 (Flt1-1) [µM]
COc1cc(Nc2nccc(Nc3ccc4c(cnn4Cc4ccccc4)c3)n2)cc(OC)c1OC [Compound 36]	< 1.5	< 1.5	< 1.5	< 1.5	1.5 to 5	5 to 10	< 1.5	≥ 10	< 1.5	< 1.5	< 1.5	–	–	–	–	–	–
COc1cc(Nc2ccnc(Nc3ccc4c(cnn4Cc4ccccc4)c3)n2)cc(OC)c1OC [Compound 37]	< 1.5	1.5 to 5	< 1.5	1.5 to 5	1.5 to 5	≥ 10	< 1.5	≥ 10	1.5 to 5	< 1.5	< 1.5	–	–	–	–	–	–
Cc1cccc(Nc2nccc(Nc3cccc(Br)c3)n2)c1 [Compound 54]	5 to 10	≥ 10	≥ 10	5 to 10	≥ 10	–	≥ 10	≥ 10	≥ 10	< 1.5	≥ 10	–	–	–	–	–	–
COc1ccc(Nc2ccnc(Nc3ccc(OC)c(OC)c3)n2)cc1OC [Compound 56]	< 1.5	≥ 10	≥ 10	< 1.5	≥ 10	≥ 10	5 to 10	≥ 10	≥ 10	< 1.5	< 1.5	5 to 10	1.5 to 5	1.5 to 5	1.5 to 5	≥ 10	1.5 to 5
Clc1cccc(Nc2ccnc(Nc3cccc(Cl)c3)n2)c1 [Compound 57]	5 to 10	≥ 10	≥ 10	< 1.5	1.5 to 5	≥ 10	≥ 10	≥ 10	5 to 10	< 1.5	< 1.5	–	< 1.5	–	5 to 10	5 to 10	5 to 10

More lines, now with the values ahead:

IC50 (PDGFRB) [µM]	IC50 (EGFR-1) [µM]	IC50 (ErbB2-1) [µM]	IC50 (KDR-1) [µM]	IC50 (Met-1) [µM]	IC50 (Zap-1) [µM]	IC50 (Lck-1) [µM]	IC50 (Akt3-1) [µM]	IC50 (Itk-1) [µM]	IC50 (IGFR-1) [µM]	IC50 (Lck-2) [µM]	IC50 (Fyn-1) [µM]	IC50 (Ret-1) [µM]	IC50 (Src-1) [µM]	IC50 (FGFR1-1) [µM]	IC50 (InsR-1) [µM]	IC50 (Flt1-1) [µM]	SMILES
–	≥ 10	–	5 to 10	5 to 10	–	5 to 10	–	5 to 10	–	< 1.5	–	–	–	–	–	–	COc1cc(Nc2ccnc(Nc3ccc(OCc4ccccc4)cc3)n2)cc(OC)c1OC [Compound 58]
–	5 to 10	–	5 to 10	5 to 10	–	5 to 10	–	5 to 10	–	< 1.5	–	–	–	–	–	–	COc1cc(Nc2ccnc(Nc3ccc(Oc4ccccc4)cc3)n2)cc(OC)c1OC [Compound 59]
1.5 to 5	≥ 10	–	1.5 to 5	5 to 10	–	≥ 10	≥ 10	1.5 to 5	< 1.5	< 1.5	–	–	–	–	–	–	Cc1cccc(Nc2ccnc(Nc3cccc(Br)c3)n2)c1 [Compound 60]
